# Experimental data from patent publication US8691281B2, “Solid pharmaceutical composition containing 6-oxo-6,7,8,9,10,11-hexahydrocyclohepta (C)chromen-3-yl sulfamate and polymorphs thereof” (Ipsen Pharma S.A.S., priority 2009, dated 2014).
# How the values were obtained:
# Format in all cases: physicochemical
# [1] = Biopharmaceutical Classification System (BCS) class
# Source text: Compound 1 belongs to Class 2 of the Biopharmaceutical Classification System or BCS proposed by G. Amidon (cf. G. L. Amidon et al., “A theoretical basis for a biopharmaceutical drug classification: the correlation of in vitro drug dissolution and in vivo bioavailability”, Pharm. Res. 12 (1995) 413-420). Its absorption, and therefore its bioavailability, thus strongly depend on the dissolution rate of the pharmaceutical form administered.
# [2] = Chemical stability at 100° C. by HPLC
# Procedure: A stability study was carried out at 100° C. between variety I of compound 1 and the compound 1 described in patent EP 880514. The chemical stability of compound 1 is studied using HPLC with different scores.
# (§1) The operating conditions of the HPLC method are the following: • column: Interchim UP3HDO-15XS, 150×4.6 mm,
# (§2) • detection: 205 nm, • injection: 20 microliters, • temperature: 40° C., • solution injected: 0.5 mg·mL^−1 (acetonitrile)
# [3] = Chemical stability at 150° C. by HPLC
# Procedure: A stability study was carried out at 150° C. between compound 1 of form III and the compound 1 described in patent EP 880514. This chemical stability of compound 1 is studied using HPLC
# as §1, §2
# [4] = Conversion experiments between the polymorphic forms; conditions: after heating, return to ambient temperature
# Procedure: The applicant has carried out conversion experiments between the different polymorphic forms of compound 1 which have shown that form III is the form which is stable at a high temperature (T>145° C.). This significant property makes it possible, by heating under vacuum, to eliminate traces of solvent (Polymorphism in the Pharmaceutical Industry, Wiley 2006, Ed Hilfiker; Wiley, ISBN: 978-3-527-31146-0).
# [5] = Particle size distribution (Malvern Mastersizer S laser granulometer)
# Procedure: • Wavelength: 1.54056 Cu, voltage 40 KV, intensity 40 mA • Measurement range: 3°-30°2 theta • Interval: 0.04°2 theta • Duration of the interval: 4s • Fixed slots: 1.6 mm • Kβ filter (Ni) • Without internal reference • EVA software (v 12.0) for data processing Smart Apex Bruker diffractometer, two-dimensional detector • SMART software for determination of the parameters and orientation of the crystal matrix • SAINT software for data integration and processing • WinGX software for determination of the space group and the structural resolution 6.1.2 DSC • Netzsch DSC 204F1 • Aluminium crucible and pierced lid • Atmosphere: Helium • Initial temperature: 20° C. • Final temperature: 200° C. • Temperature gradient: 5° C.·min^−1 6.1.3 IR • KBr pellet • Bruker IFS28 type spectrometer • Spectral range: 400-4000 cm^−1 6.1.4 NMR of the solid • Bruker Avance 500 MHz spectrometer • MAS (Magic Angle Spinning) 4 mm probe • Bruker XwinNMR software • VACP (Variable Amplitude Cross-Polarization) with MAS (11 kHz) and proton decoupling (spinal 64, 65 kHz) • External reference: Adamantane 6.1.5 Particle Size Distribution • Malvern Mastersizer S laser granulometer • Size of the sample: 30 to 50 mg • Dispersion medium: 0.50% (m/v) Nonidet in water • Mie theory with as refractive indices: particle RI=1.55; imaginary RI=1.00; dispersant RI=1.38 • Sonication time: 60 seconds • Sonication energy: 50 to 60 Hz • Recirculation time: 30 seconds at 2000 rpm^−1 • Obscuration: 15-25% 6.2 Characterization of the Examples 6.2.1 Examples 5 and 5b
Structure (SMILES),HPLC Purity ([2]; T0) [%],HPLC Purity ([2]; T1 day at 100° C.) [%],HPLC Purity ([2]; T2 days at 100° C.) [%],HPLC Purity ([2]; T3 days at 100° C.) [%],HPLC Purity ([2]; T7 days at 100° C.) [%],particle size distribution D10(%) [5] [μm],particle size distribution D50(%) [5] [μm],particle size distribution D90(%) [5] [μm],other results
"NS(=O)(=O)Oc1ccc2c3c(c(=O)oc2c1)CCCCC3 [Compound 1, 6-oxo-6,7,8,9,10,11-hexahydrocyclohepta[c]chromen-3-yl sulphamate]",,,,,,,,,Biopharmaceutical Classification System (BCS) class [1]: Class 2
"NS(=O)(=O)Oc1ccc2c3c(c(=O)oc2c1)CCCCC3 [Compound 1 Patent EP 880514, 6-oxo-6,7,8,9,10,11-hexahydrocyclohepta[c]chromen-3-yl sulphamate, reference compound]",99.6,99.1,98.8,98.7,98.0,,,,HPLC Purity ([3]; T0 (start of stability study at 150° C.)): 99.6%; HPLC Purity ([3]; T2 hours at 150° C.): 7.3%
"NS(=O)(=O)Oc1ccc2c3c(c(=O)oc2c1)CCCCC3 [form III, 6-oxo-6,7,8,9,10,11-hexahydrocyclohepta[c]chromen-3-yl sulphamate]",,,,,,,,,"HPLC Purity ([3]; T0 (start of stability study at 150° C.), listed as Compound 1 of form III): 99.4%; HPLC Purity ([3]; T2 hours at 150° C., listed as Compound 1 of form III): 41.2%; behaviour of the form on returning to ambient temperature [4]: remains unchanged"
"NS(=O)(=O)Oc1ccc2c3c(c(=O)oc2c1)CCCCC3 [Variety I of compound 1, 6-oxo-6,7,8,9,10,11-hexahydrocyclohepta[c]chromen-3-yl sulphamate]",99.6,99.6,99.7,99.7,99.7,,,,
NS(=O)(=O)Oc1ccc2c3c(c(=O)oc2c1)CCCCC3 [Example 3],,,,,,0.6,3.1,13.7,
NS(=O)(=O)Oc1ccc2c3c(c(=O)oc2c1)CCCCC3 [Example 2-2],,,,,,1.2,5.2,11.0,
